The experiment has as its system Streptococcus mutans. Nature of the experiment: Antimicrobial activity against Streptococcus mutans MT509. Type of experiment: functional.

≈ marks a conversion by molar mass, not a printed value.

For orientation: MIC means the lowest concentration found to suppress growth. A low value points to inhibition by little substance.

As to `CC(C)CCCCCCCCCCCC(=O)O`, the MIC amounted to 3.13 µg/mL (≈ 12.9 µM).
In turn, `CCC(C)CCCCCCCCCCC(=O)O` (configuration not stated) had an MIC of 3.13 µg/mL (≈ 12.9 µM).

The record behind these values is ChEMBL document CHEMBL1154580, “Identification and total synthesis of a novel dimethylated fatty acid from the Caribbean sponge Calyx podatypa” (2000).
